{
  "source": "paper PMC6780063",
  "about": "(Marine Drugs, 2019)",
  "biological_target": "α1β1γδ nAChR (Homo sapiens, UniProt P02708+P07510+P11230+Q07001)",
  "sequence (P02708 21-457 limits assumed)": "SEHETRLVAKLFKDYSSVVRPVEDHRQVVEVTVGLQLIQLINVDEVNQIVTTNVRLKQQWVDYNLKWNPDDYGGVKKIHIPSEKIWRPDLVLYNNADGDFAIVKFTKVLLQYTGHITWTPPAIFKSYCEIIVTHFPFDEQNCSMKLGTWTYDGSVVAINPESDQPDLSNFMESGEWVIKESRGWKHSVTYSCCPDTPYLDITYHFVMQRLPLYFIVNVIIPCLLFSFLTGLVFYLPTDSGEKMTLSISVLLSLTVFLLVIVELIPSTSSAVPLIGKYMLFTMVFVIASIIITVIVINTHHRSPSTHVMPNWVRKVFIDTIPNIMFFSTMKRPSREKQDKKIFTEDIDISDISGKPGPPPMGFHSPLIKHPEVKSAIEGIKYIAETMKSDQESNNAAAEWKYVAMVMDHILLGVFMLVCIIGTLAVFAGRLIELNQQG",
  "sequence (P11230 24-501 partner limits assumed)": "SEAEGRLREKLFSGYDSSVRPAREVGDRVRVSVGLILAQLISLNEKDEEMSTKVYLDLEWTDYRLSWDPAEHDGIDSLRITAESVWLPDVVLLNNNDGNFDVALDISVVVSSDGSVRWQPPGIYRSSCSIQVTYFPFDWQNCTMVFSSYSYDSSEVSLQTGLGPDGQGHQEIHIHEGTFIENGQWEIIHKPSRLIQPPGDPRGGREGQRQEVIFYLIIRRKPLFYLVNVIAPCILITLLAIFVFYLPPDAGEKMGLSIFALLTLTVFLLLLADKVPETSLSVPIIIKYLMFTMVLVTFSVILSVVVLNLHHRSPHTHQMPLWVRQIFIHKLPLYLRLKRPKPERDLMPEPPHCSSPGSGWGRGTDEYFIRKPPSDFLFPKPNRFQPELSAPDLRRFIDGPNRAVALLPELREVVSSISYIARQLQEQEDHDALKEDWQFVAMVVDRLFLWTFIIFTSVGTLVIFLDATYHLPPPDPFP",
  "sequence (P07510 23-517 limits assumed)": "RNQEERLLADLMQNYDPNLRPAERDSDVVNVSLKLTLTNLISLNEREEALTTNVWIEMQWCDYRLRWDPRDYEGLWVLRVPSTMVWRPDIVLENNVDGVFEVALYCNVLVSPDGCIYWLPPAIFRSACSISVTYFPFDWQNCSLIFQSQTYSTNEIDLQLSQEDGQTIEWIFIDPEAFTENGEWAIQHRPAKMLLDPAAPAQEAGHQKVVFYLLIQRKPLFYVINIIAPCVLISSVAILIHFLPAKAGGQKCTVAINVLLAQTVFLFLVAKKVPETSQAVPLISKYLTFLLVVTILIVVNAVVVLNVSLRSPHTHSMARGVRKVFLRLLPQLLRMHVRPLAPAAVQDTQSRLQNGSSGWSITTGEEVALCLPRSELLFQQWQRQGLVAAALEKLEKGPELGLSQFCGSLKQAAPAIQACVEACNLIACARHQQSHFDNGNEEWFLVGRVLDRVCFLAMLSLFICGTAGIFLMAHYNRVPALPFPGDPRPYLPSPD",
  "sequence (Q07001 22-517 limits assumed)": "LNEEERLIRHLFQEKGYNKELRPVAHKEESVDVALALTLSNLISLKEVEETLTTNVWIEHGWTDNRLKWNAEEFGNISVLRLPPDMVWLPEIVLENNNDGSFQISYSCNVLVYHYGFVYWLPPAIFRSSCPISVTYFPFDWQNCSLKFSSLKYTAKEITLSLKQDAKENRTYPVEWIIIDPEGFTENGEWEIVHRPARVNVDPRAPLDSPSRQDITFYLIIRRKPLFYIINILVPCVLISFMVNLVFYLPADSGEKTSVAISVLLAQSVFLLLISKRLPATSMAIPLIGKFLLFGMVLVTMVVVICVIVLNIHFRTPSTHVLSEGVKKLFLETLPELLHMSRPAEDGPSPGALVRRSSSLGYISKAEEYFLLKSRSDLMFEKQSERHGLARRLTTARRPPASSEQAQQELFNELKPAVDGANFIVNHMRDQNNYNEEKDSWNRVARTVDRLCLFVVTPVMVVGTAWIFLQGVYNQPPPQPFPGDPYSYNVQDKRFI",
  "test": "cell-based",
  "assay_type": "cell-based",
  "note": "Residues, ends and D or L forms follow the SMILES beside them.",
  "data": [
    {"smiles": "CSCC[C@@H]1NC(=O)[C@@H]2CSSC[C@H](NC(=O)[C@H](CCSC)NC(=O)[C@@H](N)CC(=O)O)C(=O)N[C@@H](CSSC[C@@H](C(N)=O)NC(=O)[C@H](CC(N)=O)NC(=O)[C@H](Cc3ccccc3)NC(=O)[C@H](Cc3c[nH]cn3)NC(=O)[C@H](CC(N)=O)NC1=O)C(=O)N[C@@H](Cc1c[nH]cn1)C(=O)N1CCC[C@H]1C(=O)N[C@@H](C)C(=O)N2", "note": "[MilIA] (HELM PEPTIDE1{D.M.C.C.H.P.A.C.M.N.H.F.N.C.[am]}$PEPTIDE1,PEPTIDE1,3:R3-8:R3|PEPTIDE1,PEPTIDE1,4:R3-14:R3$$$V2.0)", "values": [
      {"measurement": "inhibition of the ACh-evoked current amplitude, α1β1γδ", "value": 20, "unit": "%"},
      {"measurement": "IC50", "setting": "SEM", "value": 13.1, "unit": "µM"}
    ]}
  ]
}
